Reference: patent publication US20200399642A1, “METHODS AND COMPOSITIONS FOR TREATING AND PREVENTING METASTATIC TUMORS” (IMMUNE PHARMACEUTICALS, INC., priority 2017, published 2020)
Like-named read-outs stand apart in the source and are kept apart here.

Assays:
[1] = tested on: CD11b+Gr1+ myeloid cells; conditions: WT mice, HDC 24 hours before B16F10 inoculation
Experimental: (§2) For assessment of the impact of NOX2 inhibition on immune parameters during the early phase of tumor progression, mice received HDC at 1,500 μg/mouse or PBS (control) 1 day before the inoculation of B16F10 cells followed by dissection of lungs at 30 minutes or 24 hours after tumor cell inoculation as shown in FIG. 2A.
(§3) Lung tissues were dissociated into single cells by combining enzymatic degradation of extracellular matrix with mechanical dissociation using gentle MACS Technology (Miltenyi Biotech) based on instructions provided by the manufacturer.
The following fluorochrome-labeled antimouse mAbs were purchased from BD Biosciences: anti-CD45 (30-F11), anti-CD11c (HL3), anti-IaIe (2G9), anti-CD3 (145-2311), anti-CD4 (RM4-5), anti-CD8 (53-6.7), anti-NK1.1 (PK136), anti-CD19 (1D3), anti-CD11b (M1/70), anti-Gr1 (RB6-8C5), anti-CD40 (3/23), and anti-Ly6C (AL-21). Anti-CD33 (29A1.4) was from Ebiosciences; anti-F4/80 (BM8) and anti-CD69 (H1.2F3) were from BioLegend. LIVE/DEAD Fixable Yellow Dead Cell Stain Kit or DAPI (both from Invitrogen) were used as cell viability markers in flow cytometry analyses. A minimum of 100,000 gated live cells were collected on a four-laser BD LSRFortessa (405, 488, 532, and 640 nm). Data were analyzed using FACSDiva Version 8.0.1 software (BD Biosciences).

[2] = tested on: NK cells; conditions: WT mice, 3 weeks after tumor cell inoculation; % of live CD45+ cells
Experimental: (§1) C57BL/6 mice were obtained from The Charles River Laboratories. B6.129S6-Cybb^tm1Din(Nox2^−/− or Nox2-KO) mice that lack the myeloid gp91^phox subunit NOX2 and, thus, a functional ROS-forming NOX2 were obtained from The Jackson Laboratory. […] Naïve C57BL/6, Nox2-KO, and Ifng-KO mice (6-12 weeks of age) were treated intraperitoneally (i.p.) with PBS (control), HDC (Sigma, 1,500 μg/mouse), IL15 (0.04 μg/mouse), alone or combined, on the day before, the day after, and 3 days after intravenous (i.v.) inoculation of B16F10 cells (5×10^4-15×10^4 cells/mouse) or B16F1 cells (20×10^4-30×10^4 cells/mouse). Three weeks after tumor inoculation, mice were euthanized by cervical dislocation followed by harvesting of lungs and spleens. Lung metastasis was determined by counting visible pulmonary metastatic foci under a light microscope. The experimental design is outlined in FIG. 1A.

[3] = tested on: B16F1 cells; conditions: 200,000 cells in WT, 300,000 in Nox2-/- mice; 3 weeks
Experimental: as §1

[4] = tested on: ROS production of WT lung cells; conditions: in vitro, HDC 10-1,000 μmol/L added 5 minutes before WKYMVm
Experimental: (§4) Superoxide anion production was determined by use of the isoluminol-electrogenerated chemiluminescence technique as described elsewhere. Briefly, single-cell suspensions of lungs were diluted to 10^7 cells/mL in Krebs-Ringer glucose buffer supplemented with isoluminol (10 mg/mL; Sigma-Aldrich) and horseradish peroxidase (HRP, 4 U/mL, Boehringer) and added to 96-well plates that were incubated at 37° C. Phorbol myristate acetate (PMA, 5×10^−8 M, Sigma-Aldrich) or the formyl peptide receptor agonist Trp-Lys-Tyr-Met-Val-D-Met (WKYMVm) (10^−5 M, Tocris Bioscience) were added for induction of ROS production. Light emission was recorded continuously using a FLUOstar Omega plate reader (BMG). In some experiments, HDC (10-1,000 μmol/L, final concentrations) was added 5 minutes prior to the addition of WKYMVm.

[5] = tested on: EL-4 thymoma tumors
[6] = tested on: lung NK cells; test: IFNγ production ex vivo in cocultures of lung cells and B16 cells (ELISA); parameters: species or system mouse; conditions: WT mice treated with HDC in vivo; lungs 30 minutes after B16F10 inoculation; coculture with B16 cells
Experimental: Mice were pretreated with HDC (1,500 μg) or PBS on the day before i.v. inoculation of B16F10 cells. Thirty minutes after tumor cell inoculation mice were sacrificed and single-cell lung cell suspensions were prepared. Lung cells were cocultured overnight with B16 cells (500,000 cells/mL) in flat bottom 96-well plates at effector:target cell ratios of 1:1 to 50:1. Supernatants were collected after 24 hours and the IFNγ content was determined by ELISA (Mouse IFNγ DuoSet ELISA, R&D Systems).

[7] = tested on: ROS formation of lung cell suspensions; conditions: mice pretreated with HDC the day before B16 inoculation; PMA; 30 minutes and 24 hours
Experimental: as §2, §3, §4

[8] = tested on: B16F10 cells; test: Lung metastasis after i.v. inoculation of B16F10 melanoma cells; format: in vivo, mouse; conditions: for number of lung metastases: 3 weeks
Experimental: as §1
Gr1^+ cells were depleted by i.p. injections of 400 μg anti-Gr1 antibody (BioXCell, Clone RB6-8C5) 2 days before B16 cell inoculation. […] NK cells were depleted by i.p. injections of 250 μg anti-NK1.1 antibody (BioXCell, Clone PK136) 4 days and 2 days before B16F10 cell inoculation.
Spleens were harvested from WT C57BL/6 mice and single-cell suspensions were prepared. Splenocytes were enriched for NK cells by passage through nylon wool columns (Polysciences). NK cells were then negatively selected using an NK-cell isolation kit II (Miltenyi Biotech) according to the manufacturer's instructions to a purity of >70%. Five million enriched NK cells were injected i.v. 12 hours before inoculation of B16F10 cells. WT NK cells in Ifng^−/− mice were detected 2 days after adoptive transfer by collecting peripheral blood followed by DNA extraction and PCR. The primer pair used for detection of WT Ifng was 5′ […] 3′ (SEQ ID NO:02) and 5′ […] 3′ (SEQ ID NO:03). For detection of the disrupted IFNγ gene (Ifng−/−) the primer pair 5′ […] 3′ (SEQ ID NO:04) and 5′ […] 3′ (SEQ ID NO:05) was used.

[9] = tested on: xenografted human melanoma cells; conditions: immunodeficient mice; cited from earlier work
[10] = tested on: murine melanoma cells; conditions: in vivo administration; cited from earlier work
[11] = tested on: B-RAF- and K-RAS-induced lung cancer; conditions: mouse models of B-RAF- and K-RAS-induced lung cancer; cited from earlier work
[12] = tested on: melanoma; conditions: other melanoma models; cited from earlier work
[13] = Nox2-KO mice, 150,000 B16F10 cells i.v., i.p. treatment days -1, 1, 3
[14] = WT mice, 100,000 B16F10 cells i.v., i.p. treatment days -1, 1, 3 (HDC 1,500 μg/mouse, IL15 0.04 μg/mouse)

## Cl.Cl.NCCc1c[nH]cn1 [HDC, histamine dihydrochloride]
[1]
  degree of influx of myeloid cells into lungs: did not alter
[2]
  NK-cell counts in lungs: increased NK-cell counts in lungs
[3]
  lung metastasis formation by B16F1: NOX2-dependent, antimetastatic effect
[4]
  ROS formation from WT lung cells: dose-dependently suppressed
[5]; Nox2-KO mice
  subcutaneous growth of EL-4 thymoma tumors: but not in Nox2-KO mice
[5]; WT mice
  subcutaneous growth of EL-4 thymoma tumors: reduces the subcutaneous growth
[6]
  IFNγ produced ex vivo by lung NK cells: higher concentrations of IFNγ
[7]
  ROS formed ex vivo in lung cell suspensions: reduced
[8]; Gr1+-depleted WT mice, B16F10
  lung metastasis: did not affect metastasis
[8]; Ifng-KO mice after adoptive transfer of IFNγ-producing WT NK cells
  antimetastatic efficacy of HDC: significantly restored the antimetastatic efficacy
[8]; Ifng-KO mice after adoptive transfer of Ifng-KO NK cells
  antimetastatic efficacy of HDC: but not the transfer of Ifng-KO NK cells
[8]; Ifng-KO mice, B16F10
  melanoma metastasis: did not reduce melanoma metastasis
[8]; [13]
  number of lung metastases: not observed
[8]; [14]
  number of lung metastases: decreased the number of lung metastases
[8]; animals depleted of NK cells (anti-NK1.1), WT and Nox2-/-, B16F10
  melanoma metastasis: did not inhibit melanoma metastasis

## CC(=O)N[C@@H](CS)C(=O)O [N-acetyl-cysteine]
[9]
  metastasis of xenografted human melanoma cells: accelerates the metastasis
[10]
  tumorigenicity of murine melanoma cells: reduces the tumorigenicity
[11]
  tumor progression: accelerates tumor progression
[12]
  lymph node metastasis: enhances lymph node metastasis

## IL15: NK cell-activating cytokine IL15
[8]; [13]
  number of lung metastases: exerted antimetastatic activity
[8]; [14]
  number of lung metastases: exerted antimetastatic activity
